Measurements taken from the NIST ThermoML archive (doi:10.1016/j.jct.2016.12.021).
Numbers after ± are expanded uncertainties.

Settings: Liquid, Closed cell (Static) method

vapor or sublimation pressure (293.18 K) [kPa] | vapor or sublimation pressure (298.15 K) [kPa] | vapor or sublimation pressure (313.15 K) [kPa] | vapor or sublimation pressure (323.15 K) [kPa] | vapor or sublimation pressure (353.15 K) [kPa] | Structure (SMILES)
4171.7 ± 11 | 4709.3 ± 12 |  |  |  | FC(F)F [trifluoromethane]
836.8 ± 2.4 | 950.8 ± 2.8 | 1380.1 ± 10 | 1713 ± 4.5 | 3135.4 ± 6.2 | CCC [propane]
